Legend:
Vasopressin V1a receptor = Vasopressin V1a receptor (Homo sapiens, UniProt P37288); assay type: cell membranes, Membrane; settings: hek293; note: in other assays of this panel Not Active means under 50% inhibition at 10 µM
Melanocortin receptor 5 = Melanocortin receptor 5 (Homo sapiens, UniProt P33032); assay type: cell membranes, HEK293, Membrane; settings: hek293; note: in other assays of this panel Not Active means under 50% inhibition at 10 µM
[1] = target: Beta-2 adrenergic receptor (Homo sapiens, UniProt P07550); experiment: DRUGMATRIX: Adrenergic beta2 radioligand binding (ligand: [3H] CGP-12177); assay type: cell membranes, CHO, Membrane; settings: cho; Not Active = under 50% inhibition at 10 µM
Sequence of Beta-2 adrenergic receptor (P07550 whole entry): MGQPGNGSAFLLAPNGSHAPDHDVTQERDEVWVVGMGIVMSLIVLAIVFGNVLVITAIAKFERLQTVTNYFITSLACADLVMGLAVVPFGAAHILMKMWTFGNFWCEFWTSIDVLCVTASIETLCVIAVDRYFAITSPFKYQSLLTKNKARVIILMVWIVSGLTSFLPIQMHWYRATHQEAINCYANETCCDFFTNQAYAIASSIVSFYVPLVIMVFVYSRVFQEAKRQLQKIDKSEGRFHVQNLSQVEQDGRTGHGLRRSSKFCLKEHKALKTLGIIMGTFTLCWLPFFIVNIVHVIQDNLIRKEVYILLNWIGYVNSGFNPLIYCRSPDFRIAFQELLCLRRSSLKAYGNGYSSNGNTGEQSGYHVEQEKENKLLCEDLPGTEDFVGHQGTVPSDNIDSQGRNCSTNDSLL

[2] = target: Aldo-keto reductase family 1 member B1 (Rattus norvegicus, UniProt P07943); experiment: biochemical; assay type: tissue-based, Lens of camera-type eye;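 note: inhibition of aldose reductase enzyme activity, measured with DL-glyceraldehyde as the substrate; in other assays of this panel Not Active means under 50% inhibition at 10 µM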
Acetylcholinesterase = Acetylcholinesterase (Homo sapiens, UniProt P22303); experiment: DRUGMATRIX: Acetylcholinesterase enzyme inhibition (substrate: acetylthiocholine); assay type: cell-based, HEK293; settings: hek293; Not Active = under 50% inhibition at 10 µM
Sequence of Acetylcholinesterase (P22303 whole entry): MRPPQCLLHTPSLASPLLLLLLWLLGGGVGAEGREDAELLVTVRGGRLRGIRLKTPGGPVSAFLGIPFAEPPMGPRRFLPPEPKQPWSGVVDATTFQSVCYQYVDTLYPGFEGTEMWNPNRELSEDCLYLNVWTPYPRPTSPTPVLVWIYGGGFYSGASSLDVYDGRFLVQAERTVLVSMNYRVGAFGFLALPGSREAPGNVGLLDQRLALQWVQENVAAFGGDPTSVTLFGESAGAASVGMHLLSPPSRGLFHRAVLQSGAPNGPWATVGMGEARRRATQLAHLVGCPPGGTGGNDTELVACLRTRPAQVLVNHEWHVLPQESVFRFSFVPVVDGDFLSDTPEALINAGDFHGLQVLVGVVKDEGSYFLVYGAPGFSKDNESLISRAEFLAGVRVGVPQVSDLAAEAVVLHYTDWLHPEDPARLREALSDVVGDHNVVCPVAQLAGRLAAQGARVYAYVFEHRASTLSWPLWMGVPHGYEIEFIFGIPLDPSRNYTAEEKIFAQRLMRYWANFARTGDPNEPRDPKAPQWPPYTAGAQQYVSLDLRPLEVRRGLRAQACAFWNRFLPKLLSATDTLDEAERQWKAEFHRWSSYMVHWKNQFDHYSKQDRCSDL

[3] = target: C-C chemokine receptor type 2 (Homo sapiens, UniProt P41597); assay type: cell membranes, Membrane; settings: cho-k1; note: in other assays of this panel Not Active means under 50% inhibition at 10 µM
Sequence of C-C chemokine receptor type 2 (P41597 whole entry): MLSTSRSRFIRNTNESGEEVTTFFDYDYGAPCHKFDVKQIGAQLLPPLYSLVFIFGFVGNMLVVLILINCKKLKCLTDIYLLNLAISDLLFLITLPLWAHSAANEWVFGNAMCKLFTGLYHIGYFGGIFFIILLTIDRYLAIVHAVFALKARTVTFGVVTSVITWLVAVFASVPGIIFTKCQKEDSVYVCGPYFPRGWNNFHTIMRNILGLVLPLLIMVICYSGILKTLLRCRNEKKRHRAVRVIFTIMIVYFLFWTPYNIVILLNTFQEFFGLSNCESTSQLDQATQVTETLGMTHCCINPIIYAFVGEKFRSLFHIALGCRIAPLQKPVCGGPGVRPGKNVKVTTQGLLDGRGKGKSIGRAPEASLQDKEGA

[4] = DRUGMATRIX: Platelet-Derived Growth Factor (PDGF) radioligand binding (ligand: [125I] PDGF); assay type: cell-based; settings: nih3t3; Not Active = under 50% inhibition at 10 µM

Sequence of Vasopressin V1a receptor (P37288 whole entry): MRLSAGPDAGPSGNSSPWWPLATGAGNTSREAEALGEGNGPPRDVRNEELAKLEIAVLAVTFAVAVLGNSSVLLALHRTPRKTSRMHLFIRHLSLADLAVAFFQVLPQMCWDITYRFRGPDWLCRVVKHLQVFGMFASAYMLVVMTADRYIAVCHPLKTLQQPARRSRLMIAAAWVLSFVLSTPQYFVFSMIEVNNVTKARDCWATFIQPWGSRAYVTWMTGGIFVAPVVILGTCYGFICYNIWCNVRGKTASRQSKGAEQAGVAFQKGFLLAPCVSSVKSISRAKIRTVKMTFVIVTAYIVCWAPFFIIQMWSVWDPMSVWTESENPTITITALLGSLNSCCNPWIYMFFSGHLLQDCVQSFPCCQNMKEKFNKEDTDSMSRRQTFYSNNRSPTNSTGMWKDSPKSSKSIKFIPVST
Sequence of Melanocortin receptor 5 (P33032 whole entry): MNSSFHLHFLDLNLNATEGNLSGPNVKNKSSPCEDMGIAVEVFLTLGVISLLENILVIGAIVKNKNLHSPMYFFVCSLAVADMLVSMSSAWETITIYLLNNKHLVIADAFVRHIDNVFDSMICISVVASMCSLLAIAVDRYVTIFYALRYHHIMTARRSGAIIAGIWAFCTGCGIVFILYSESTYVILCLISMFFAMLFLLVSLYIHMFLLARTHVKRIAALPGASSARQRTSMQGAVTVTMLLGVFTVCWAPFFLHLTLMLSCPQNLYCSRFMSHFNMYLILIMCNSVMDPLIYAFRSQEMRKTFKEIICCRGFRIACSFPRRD

SMILES	IC50 (Vasopressin V1a receptor)	IC50 (Melanocortin receptor 5)	IC50 [1]	IC50 [2]	IC50 (Acetylcholinesterase)	IC50 [3]	IC50 [4]	Ki [4]	IC50 ([2]; read-out: IC50) [µM]
CN(C)CCC=C1c2ccccc2CCc2ccccc21 [AMITRIPTYLINE]	Not Active	Not Active	Not Active	Not Active	Not Active	Not Active	Not Active	Not Active	–
C[C@]12CC[C@H]3[C@@H](CCC4=CC(=O)CC[C@@H]43)[C@@H]1CC[C@@H]2O [NANDROLONE]	Not Active	Not Active	Not Active	Not Active	Not Active	Not Active	Not Active	Not Active	–
N=C(N)c1ccc(OCCCCCOc2ccc(C(=N)N)cc2)cc1 [PENTAMIDINE]	Not Active	Not Active	Not Active	Not Active	Not Active	Not Active	Not Active	Not Active	–
CCOc1nc2cccc(C(=O)O)c2n1Cc1ccc(-c2ccccc2-c2nnn[nH]2)cc1	Not Active	Not Active	Not Active	Not Active	Not Active	Not Active	Not Active	Not Active	–
COc1cccc2c1C(=O)c1c(O)c3c(c(O)c1C2=O)C[C@@](O)(C(C)=O)C[C@@H]3O[C@H]1C[C@H](N)[C@H](O)[C@H](C)O1 [DAUNORUBICIN]	Not Active	Not Active	Not Active	Not Active	Not Active	Not Active	Not Active	Not Active	–
CC(O)(P(=O)(O)O)P(=O)(O)O [ETIDRONIC ACID]	Not Active	Not Active	Not Active	Not Active	Not Active	Not Active	Not Active	Not Active	–
CC(=O)Oc1ccccc1C(=O)O [ASPIRIN]	Not Active	Not Active	Not Active	Not Active	Not Active	Not Active	Not Active	Not Active	–
O=c1[nH]c(=O)n([C@H]2C[C@H](O)[C@@H](CO)O2)cc1F [FLOXURIDINE]	Not Active	Not Active	Not Active	Not Active	Not Active	Not Active	Not Active	Not Active	–
O=C(O)CC(O)(CC(=O)O)C(=O)O [CITRIC ACID]	Not Active	Not Active	Not Active	Not Active	Not Active	Not Active	Not Active	Not Active	–
CCCCC1=NC2(CCCC2)C(=O)N1Cc1ccc(-c2ccccc2-c2nnn[nH]2)cc1 [IRBESARTAN]	Not Active	Not Active	Not Active	Not Active	Not Active	Not Active	Not Active	Not Active	–
O=c1c(-c2ccc(O)cc2)coc2cc(O)cc(O)c12 [GENISTEIN]	Not Active	Not Active	Not Active	–	Not Active	Not Active	Not Active	Not Active	45
CN(C)C(=N)NC(=N)N [METFORMIN]	Not Active	Not Active	Not Active	Not Active	Not Active	Not Active	Not Active	Not Active	–
C[C@H]1O[C@H](O[C@H]2[C@H](O)[C@@H](O)[C@@H](O[C@H]3[C@H](O)[C@@H](O)C(O)O[C@@H]3CO)O[C@@H]2CO)[C@H](O)[C@@H](O)[C@@H]1N[C@H]1C=C(CO)[C@@H](O)[C@H](O)[C@H]1O (some centres not stated) [ACARBOSE]	Not Active	Not Active	Not Active	Not Active	Not Active	Not Active	Not Active	Not Active	–
COc1ccccc1N	Not Active	Not Active	Not Active	Not Active	Not Active	Not Active	Not Active	Not Active	–
CC(O)COC[C@H]1O[C@@H]2O[C@H]3[C@H](O)[C@@H](O)[C@@H](O[C@H]4[C@H](O)[C@@H](O)[C@@H](O[C@H]5[C@H](O)[C@@H](O)[C@@H](O[C@H]6[C@H](O)[C@@H](O)[C@@H](O[C@H]7[C@H](O)[C@@H](O)[C@@H](O[C@H]8[C@H](O)[C@@H](O)[C@@H](O[C@H]1[C@H](O)[C@H]2O)O[C@@H]8COCC(C)O)O[C@@H]7COCC(C)O)O[C@@H]6COCC(C)O)O[C@@H]5COCC(C)O)O[C@@H]4COCC(C)O)O[C@@H]3COCC(C)O (stereo partly drawn) [2-HYDROXYPROPYL-BETA-CYCLODEXTRIN]	Not Active	Not Active	Not Active	Not Active	Not Active	Not Active	Not Active	Not Active	–
N[C@@H](Cn1ccc(=O)c(O)c1)C(=O)O [L-MIMOSINE]	Not Active	Not Active	Not Active	Not Active	Not Active	Not Active	Not Active	Not Active	–
CS(=O)(=O)Nc1ccc([N+](=O)[O-])cc1Oc1ccccc1 [NIMESULIDE]	Not Active	Not Active	Not Active	Not Active	Not Active	Not Active	Not Active	Not Active	–
C[N+](C)(C)C[C@H](O)CC(=O)[O-] [LEVOCARNITINE]	Not Active	Not Active	Not Active	Not Active	Not Active	Not Active	Not Active	Not Active	–
O=C(O)c1cc(-c2ccc(F)cc2F)ccc1O [DIFLUNISAL]	Not Active	Not Active	Not Active	Not Active	Not Active	Not Active	Not Active	Not Active	–
CN1CCN(C(c2ccccc2)c2ccccc2)CC1 [CYCLIZINE]	Not Active	Not Active	Not Active	Not Active	Not Active	Not Active	Not Active	Not Active	–
CC(C)(C)NCC(O)COc1cccc2c1CC(O)C(O)C2 (configuration not stated) [NADOLOL]	Not Active	Not Active	Not Active	Not Active	Not Active	Not Active	Not Active	Not Active	–
CCCNC(=O)NS(=O)(=O)c1ccc(Cl)cc1 [CHLORPROPAMIDE]	Not Active	Not Active	Not Active	Not Active	Not Active	Not Active	Not Active	Not Active	–
CO/N=C(\C(=O)N[C@@H]1C(=O)N2C(C(=O)O)=C(COC(C)=O)CS[C@H]12)c1csc(N)n1 [CEFOTAXIME]	Not Active	Not Active	Not Active	Not Active	Not Active	Not Active	Not Active	Not Active	–
Nc1cc(-c2ccncc2)c[nH]c1=O [INAMRINONE]	Not Active	Not Active	Not Active	Not Active	Not Active	Not Active	Not Active	Not Active	–
